Data as given in patent publication US10988523B2, “Modified lipidated Relaxin B chain peptides and their therapeutic use” (Sanofi, priority 2018, dated 2021).
*1 amine or outer side, *2 acyl side, *3 side chain or, on linkers, in order; H or OH if unused. Where a SMILES comes first, the peptide text is derived from it. Side-chain parts run from the residue outwards. [ ]: non-standard residue; d: D form. The star is where a group is joined. X3 = CCCCCCCCCCCCCCCC(=O)N[C@@H](CCC(=O)N[C@@H](CCC(=O)N[C@@H](CCC(=O)N[C@@H](CCC(=O)NCCCC[C@H](NC(=O)CCC(=O)NCCCOCCOCCOCCCNC(=O)CCC(=O)NCCCOCCOCCOCCCN*)C(N)=O)C(=O)O)C(=O)O)C(=O)O)C(=O)O; X5 = CCCCCCCCCCCCCCCC(=O)N[C@@H](CCC(=O)NCCCC[C@H](NC(=O)CC[C@H](NC(=O)CC[C@H](NC(=O)CC[C@H](NC(=O)CCC(=O)NCCCOCCOCCOCCCNC(=O)CCC(=O)NCCCOCCOCCOCCCN*)C(=O)O)C(=O)O)C(=O)O)C(N)=O)C(=O)O; Arg(Me2s) = CN=C(NC)NCCC[C@H](N)C(=O)O; γGlu = O=C(O)[C@H](CCC(=O)[*:2])N[*:1]; Arg(Me) = CNC(=N)NCCC[C@H](N)C(=O)O; Stearoyl = CCCCCCCCCCCCCCCCCC(=O)*; Palmitoyl = CCCCCCCCCCCCCCCC(=O)*; αMeK = C[C@](N)(CCCCN)C(=O)O; Nle = CCCC[C@H](N)C(=O)O; AEEA = NCCOCCOCC(=O)O; Aib = CC(C)(N)C(=O)O

Molecular target: T1, RXFP1 (Homo sapiens, UniProt Q9HBX9)
T1 construct: OVCAR5 cells expressing endogenous RXFP1; endogenous in cells; host or cells: OVCAR5 cells
T1 sequence (Q9HBX9 1-757): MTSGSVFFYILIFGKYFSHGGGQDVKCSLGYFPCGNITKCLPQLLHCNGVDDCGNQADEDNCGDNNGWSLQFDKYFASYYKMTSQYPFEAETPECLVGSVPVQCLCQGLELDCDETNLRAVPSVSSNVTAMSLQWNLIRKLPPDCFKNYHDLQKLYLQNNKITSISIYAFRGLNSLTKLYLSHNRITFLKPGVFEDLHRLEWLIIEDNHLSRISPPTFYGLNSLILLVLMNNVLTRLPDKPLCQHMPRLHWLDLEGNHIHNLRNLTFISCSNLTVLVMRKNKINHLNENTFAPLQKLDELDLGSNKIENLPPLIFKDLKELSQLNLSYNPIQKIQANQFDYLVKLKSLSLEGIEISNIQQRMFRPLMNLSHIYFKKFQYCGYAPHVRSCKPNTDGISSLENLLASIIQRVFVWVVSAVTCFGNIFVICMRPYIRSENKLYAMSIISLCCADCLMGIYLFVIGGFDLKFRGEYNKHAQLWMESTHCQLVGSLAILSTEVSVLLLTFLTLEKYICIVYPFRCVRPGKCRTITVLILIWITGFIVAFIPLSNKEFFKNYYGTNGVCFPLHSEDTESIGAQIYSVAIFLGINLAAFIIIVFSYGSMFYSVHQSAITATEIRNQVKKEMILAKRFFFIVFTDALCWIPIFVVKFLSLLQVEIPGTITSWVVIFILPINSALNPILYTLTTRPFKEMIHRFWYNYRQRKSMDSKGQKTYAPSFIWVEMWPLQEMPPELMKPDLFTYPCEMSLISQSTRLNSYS
Assay: OVCAR5 cAMP assay (HTRF), RXFP1 agonist activity
Format: cell-based
Conditions: for EC50: OVCAR5 cells, cAMP HTRF, read-out: EC50 (nM), OVCAR 5 cells (cAMP); for Emax: OVCAR-5, maximal cAMP relative to H2-relaxin maximum (100%), read-out: EMax, OVCAR 5 cells (cAMP)
Summary of the method: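 cAMP accumulation readout: after 1 mM IBMX for 40 min, endogenous-RXFP1 OVCAR5 cells got rising peptide concentrations without FCS, 30 min, 37° C, then lysis with HTRF cAMP reagents. Nonlinear regression gave EC50; Emax expressed relative to H2-relaxin maximum, same occasion.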

Compound	EC50 [nM]	Emax [%]
CCCCCCCCCCCCCCCC(=O)N[C@@H](CCC(=O)N[C@@H](CCC(=O)N[C@@H](CCC(=O)N[C@@H](CCC(=O)NCCCC[C@H](NC(=O)CCC(=O)NCCCOCCOCCOCCCNC(=O)CCC(=O)NCCCOCCOCCOCCCNC(=O)[C@H](CCCCNC(C)=O)NC(=O)[C@H](CCCCN)NC(=O)[C@H](CCCNC(=N)N)NC(=O)[C@](C)(CCCCN)NC(=O)[C@H](CO)NC(=O)[C@H](Cc1ccccc1)NC(=O)[C@@H](NC(=O)[C@H](CO)NC(=O)[C@H](CCCC)NC(=O)CNC(=O)[C@H](CCC(=O)O)NC(=O)C(C)(C)NC(=O)C(C)(C)NC(=O)[C@@H](NC(=O)[C@H](CCCCNC(C)=O)NC(=O)[C@H](C)NC(=O)[C@H](CCCNC(=N)N)NC(=O)[C@@H](NC(=O)[C@H](CCCCN)NC(=O)[C@H](CCC(=O)O)NC(=O)[C@H](CCCNC(=N)N)NC(=O)CNC(=O)[C@H](CCC(=O)O)NC(=O)[C@H](CC(C)C)NC(C)=O)C(C)C)[C@@H](C)CC)[C@@H](C)O)C(N)=O)C(=O)O)C(=O)O)C(=O)O)C(=O)O [compound 142] (Ac-LEGREKVRAK(Ac)I[Aib][Aib]EG[Nle]STFS[αMeK]RKK(Ac)-X3)	0.02	91
CCCCCCCCCCCCCCCC(=O)N[C@@H](CCC(=O)N[C@@H](CCC(=O)N[C@@H](CCC(=O)N[C@@H](CCC(=O)NCCCC[C@H](NC(=O)COCCOCCNC(=O)COCCOCCNC(=O)COCCOCCNC(=O)COCCOCCNC(=O)[C@H](CCCCNC(C)=O)NC(=O)[C@H](CCCCN)NC(=O)[C@H](CCCNC(=N)N)NC(=O)[C@](C)(CCCCN)NC(=O)[C@H](CO)NC(=O)[C@H](Cc1ccccc1)NC(=O)[C@@H](NC(=O)[C@H](CO)NC(=O)[C@H](CCCC)NC(=O)CNC(=O)[C@H](CCC(=O)O)NC(=O)C(C)(C)NC(=O)C(C)(C)NC(=O)[C@@H](NC(=O)[C@H](CCCCNC(C)=O)NC(=O)[C@H](C)NC(=O)[C@H](CCCNC(=N)N)NC(=O)[C@@H](NC(=O)[C@H](CCCCN)NC(=O)[C@H](CCC(=O)O)NC(=O)[C@H](CCCNC(=N)N)NC(=O)CNC(=O)[C@H](CCC(=O)O)NC(=O)[C@H](CC(C)C)NC(C)=O)C(C)C)[C@@H](C)CC)[C@@H](C)O)C(N)=O)C(=O)O)C(=O)O)C(=O)O)C(=O)O [compound 143] (Ac-LEGREKVRAK(Ac)I[Aib][Aib]EG[Nle]STFS[αMeK]RKK(Ac)[AEEA][AEEA][AEEA][AEEA]K([γGlu-γGlu-γGlu-γGlu-Palmitoyl])-NH2)	0.4	88
CCCCCCCCCCCCCCCC(=O)N[C@@H](CCC(=O)N[C@@H](CCC(=O)N[C@@H](CCC(=O)NCCCC[C@H](NC(=O)COCCOCCNC(=O)COCCOCCNC(=O)COCCOCCNC(=O)COCCOCCNC(=O)[C@H](CCCCNC(C)=O)NC(=O)[C@H](CCCCN)NC(=O)[C@H](CCCNC(=N)N)NC(=O)C(C)(C)NC(=O)[C@H](CO)NC(=O)[C@H](Cc1ccccc1)NC(=O)[C@@H](NC(=O)[C@H](CO)NC(=O)[C@H](CCCC)NC(=O)CNC(=O)[C@H](CCC(=O)O)NC(=O)C(C)(C)NC(=O)C(C)(C)NC(=O)[C@@H](NC(=O)[C@H](CCCCNC(C)=O)NC(=O)[C@H](C)NC(=O)[C@H](CCCNC(=N)N)NC(=O)[C@@H](NC(=O)[C@H](CCCCN)NC(=O)[C@H](CCC(=O)O)NC(=O)[C@H](CCCNC(=N)N)NC(=O)CNC(=O)[C@H](CCC(=O)O)NC(=O)[C@H](CC(C)C)NC(C)=O)C(C)C)[C@@H](C)CC)[C@@H](C)O)C(N)=O)C(=O)O)C(=O)O)C(=O)O [compound 144] (Ac-LEGREKVRAK(Ac)I[Aib][Aib]EG[Nle]STFS[Aib]RKK(Ac)[AEEA][AEEA][AEEA][AEEA]K([γGlu-γGlu-γGlu-Palmitoyl])-NH2)		94

The next lines start with the values.

EC50 [nM]	Emax [%]	Compound
0.02	89	CCCCCCCCCCCCCCCC(=O)N[C@@H](CCC(=O)NCCCC[C@H](NC(=O)CC[C@H](NC(=O)CC[C@H](NC(=O)CC[C@H](NC(=O)CCC(=O)NCCCOCCOCCOCCCNC(=O)CCC(=O)NCCCOCCOCCOCCCNC(=O)[C@H](CCCCNC(C)=O)NC(=O)[C@H](CCCCN)NC(=O)[C@H](CCCNC(=N)N)NC(=O)[C@](C)(CCCCN)NC(=O)[C@H](CO)NC(=O)[C@H](Cc1ccccc1)NC(=O)[C@@H](NC(=O)[C@H](CO)NC(=O)[C@H](CCCC)NC(=O)CNC(=O)[C@H](CCC(=O)O)NC(=O)C(C)(C)NC(=O)C(C)(C)NC(=O)[C@@H](NC(=O)[C@H](CCCCNC(C)=O)NC(=O)[C@H](C)NC(=O)[C@H](CCCNC(=N)N)NC(=O)[C@@H](NC(=O)[C@H](CCCCN)NC(=O)[C@H](CCC(=O)O)NC(=O)[C@H](CCCNC(=N)N)NC(=O)CNC(=O)[C@H](CCC(=O)O)NC(=O)[C@H](CC(C)C)NC(C)=O)C(C)C)[C@@H](C)CC)[C@@H](C)O)C(=O)O)C(=O)O)C(=O)O)C(N)=O)C(=O)O [compound 146] (Ac-LEGREKVRAK(Ac)I[Aib][Aib]EG[Nle]STFS[αMeK]RKK(Ac)-X5)
	86	CCCCCCCCCCCCCCCC(=O)N[C@@H](CCC(=O)N[C@@H](CCC(=O)N[C@@H](CCC(=O)N[C@@H](CCC(=O)NCCOCCOCC(=O)NCCOCCOCC(=O)NCCOCCOCC(=O)NCCOCCOCC(=O)NCCCC[C@H](NC(=O)[C@H](CCCCNC(C)=O)NC(=O)[C@H](CCCCN)NC(=O)[C@H](CCCNC(=N)N)NC(=O)C(C)(C)NC(=O)[C@H](CO)NC(=O)[C@H](Cc1ccccc1)NC(=O)[C@@H](NC(=O)[C@H](CO)NC(=O)[C@H](CCCC)NC(=O)CNC(=O)[C@H](CCC(=O)O)NC(=O)C(C)(C)NC(=O)C(C)(C)NC(=O)[C@@H](NC(=O)[C@H](CCCCNC(C)=O)NC(=O)[C@H](C)NC(=O)[C@H](CCCNC(=N)N)NC(=O)[C@@H](NC(=O)[C@H](CCCCN)NC(=O)[C@H](CCC(=O)O)NC(=O)[C@H](CCCNC(=N)N)NC(=O)CNC(=O)[C@H](CCC(=O)O)NC(=O)[C@H](CC(C)C)NC(C)=O)C(C)C)[C@@H](C)CC)[C@@H](C)O)C(N)=O)C(=O)O)C(=O)O)C(=O)O)C(=O)O [compound 147] (Ac-LEGREKVRAK(Ac)I[Aib][Aib]EG[Nle]STFS[Aib]RKK(Ac)K([AEEA-AEEA-AEEA-AEEA-γGlu-γGlu-γGlu-γGlu-Palmitoyl])-NH2)
	94	CCCCCCCCCCCCCCCCCC(=O)N[C@@H](CCC(=O)N[C@@H](CCC(=O)N[C@@H](CCC(=O)NCCOCCOCC(=O)NCCOCCOCC(=O)NCCOCCOCC(=O)NCCCC[C@H](NC(=O)[C@H](CCCCNC(C)=O)NC(=O)[C@H](CCCCN)NC(=O)[C@H](CCCNC(=NC)NC)NC(=O)C(C)(C)NC(=O)[C@H](CO)NC(=O)[C@H](Cc1c[nH]c2ccccc12)NC(=O)[C@@H](NC(=O)[C@H](CO)NC(=O)[C@H](CCCC)NC(=O)CNC(=O)[C@H](CCC(=O)O)NC(=O)C(C)(C)NC(=O)C(C)(C)NC(=O)[C@@H](NC(=O)[C@H](CCCCNC(C)=O)NC(=O)[C@H](C)NC(=O)[C@H](CCCNC(=N)N)NC(=O)[C@@H](NC(=O)[C@H](CCCCN)NC(=O)[C@H](CCC(=O)O)NC(=O)[C@H](CCCNC(=N)N)NC(=O)CNC(=O)[C@H](CCC(=O)O)NC(=O)[C@H](CC(C)C)NC(C)=O)C(C)C)[C@@H](C)CC)[C@@H](C)O)C(N)=O)C(=O)O)C(=O)O)C(=O)O [compound 148] (Ac-LEGREKVRAK(Ac)I[Aib][Aib]EG[Nle]STWS[Aib][Arg(Me2s)]KK(Ac)K([AEEA-AEEA-AEEA-γGlu-γGlu-γGlu-Stearoyl])-NH2)
0.14	90	CCCCCCCCCCCCCCCC(=O)N[C@@H](CCC(=O)NCCCC[C@H](NC(=O)CC[C@H](NC(=O)CC[C@H](NC(=O)CC[C@H](NC(=O)COCCOCCNC(=O)COCCOCCNC(=O)COCCOCCNC(=O)COCCOCCNC(=O)[C@H](CCCCNC(C)=O)NC(=O)[C@H](C)NC(=O)[C@H](CCCNC(=N)NC)NC(=O)[C@](C)(CCCCN)NC(=O)[C@H](CO)NC(=O)[C@H](Cc1ccccc1)NC(=O)[C@@H](NC(=O)[C@H](CO)NC(=O)[C@H](CCCC)NC(=O)CNC(=O)[C@H](CCC(=O)O)NC(=O)C(C)(C)NC(=O)C(C)(C)NC(=O)[C@@H](NC(=O)[C@H](CCCCNC(C)=O)NC(=O)[C@H](C)NC(=O)[C@H](CCCNC(=N)N)NC(=O)[C@@H](NC(=O)[C@H](CCCCN)NC(=O)[C@H](CCC(=O)O)NC(=O)[C@H](CCCNC(=N)N)NC(=O)CNC(=O)[C@H](CCC(=O)O)NC(=O)[C@H](CC(C)C)NC(C)=O)C(C)C)[C@@H](C)CC)[C@@H](C)O)C(=O)O)C(=O)O)C(=O)O)C(N)=O)C(=O)O [compound 151] (Ac-LEGREKVRAK(Ac)I[Aib][Aib]EG[Nle]STFS[αMeK][Arg(Me)]AK(Ac)[AEEA][AEEA][AEEA][AEEA][γGlu][γGlu][γGlu]K([γGlu-Palmitoyl])-NH2)
